Blank lines part the entries; values can stand above or below the molecule they belong to. The source made the active and inactive calls. No cut-off for these calls is given here.
Columns and labels:
THP-1 [1] = experiment: Antiinflammatory activity in PMA-differentiated human THP1 cells assessed as inhibition of LPS-induced IL-6 production at 10 uM after 24 hrs by ELISA relative to control; assay type: functional; details: THP-1, 24 h
THP-1 [2] = experiment: Antiinflammatory activity in PMA-differentiated human THP1 cells assessed as inhibition of LPS-induced TNF-alpha production at 10 uM after 24 hrs by ELISA relative to control; assay type: functional; details: THP-1, 24 h
ACHN (Homo sapiens) [3] = experiment: Antiproliferative activity against human ACHN cells at 1 uM relative to control
[4] = test system: MDA-MB-231 (Homo sapiens); experiment: Antiproliferative activity against human MDA-MB-231 cells at 1 uM relative to control; details: mda-mb-231, 1 µM
MIA PaCa-2 = experiment: Antiproliferative activity against human MIAPaCa2 cells at 10 uM relative to control; assay type: functional
THP-1 [5] = experiment: Antiinflammatory activity in PMA-differentiated human THP1 cells assessed as inhibition of LPS-induced TNF-alpha production at 1 uM after 24 hrs by ELISA relative to control; assay type: functional; details: THP-1, 24 h
[6] = test system: MDA-MB-231 (Homo sapiens); experiment: Antiproliferative activity against human MDA-MB-231 cells at 10 uM relative to control
THP-1 (Homo sapiens) [7] = experiment: Antiinflammatory activity in human THP1 cells assessed as inhibition of TNF-alpha production at 10 uM relative to control; set-up: scale not given: the % may be the effect or the level left
THP-1 [8] = experiment: Antiinflammatory activity in PMA-differentiated human THP1 cells assessed as inhibition of LPS-induced IL-6 production at 1 uM after 24 hrs by ELISA relative to control; assay type: functional; details: THP-1, 24 h
[9] = test system: MIA PaCa-2 (Homo sapiens); experiment: Antiproliferative activity against human MIA PaCa-2 cells at 1 uM relative to control
ACHN (Homo sapiens) [10] = experiment: Antiproliferative activity against human ACHN cells at 10 uM relative to control
PANC-1 = experiment: Antiproliferative activity against human PANC1 cells after 48 hrs by propidium iodide staining based fluorometry; assay type: functional, cell-based; details: PANC-1, 48 h
ACHN = experiment: Antiproliferative activity against human ACHN cells after 48 hrs by propidium iodide staining based fluorometry; assay type: functional, cell-based
THP-1 (Homo sapiens) [11] = experiment: Antiinflammatory activity in human THP1 cells assessed as inhibition of IL-6 production at 10 uM relative to control; set-up: scale not given: the % may be the effect or the level left
THP-1 [12] = experiment: Cytotoxicity against PMA-differentiated human THP1 cells assessed as reduction in cell viability after 4.5 hrs by MTS assay; assay type: cell-based; details: THP-1, 4.5 h
PBMC = experiment: Antiinflammatory activity in human PBMC assessed as inhibition of LPS-induced TNF-alpha production incubated for 30 mins followed by LPS addition measured after 4.5 hrs by ELISA; assay type: functional, cell-based
THP-1 [13] = experiment: Antiinflammatory activity in PMA-differentiated human THP1 cells assessed as inhibition of LPS-induced TNF-alpha production after 24 hrs by ELISA; assay type: functional, cell-based; details: THP-1, 24 h
NCI-H460 = experiment: Antiproliferative activity against human H460 cells after 48 hrs by propidium iodide staining based fluorometry; assay type: functional, cell-based; details: NCI-H460, 48 h
Calu-1 = experiment: Antiproliferative activity against human Calu1 cells after 48 hrs by propidium iodide staining based fluorometry; assay type: functional, cell-based; details: Calu-1, 48 h
THP-1 [14] = experiment: Antiinflammatory activity in PMA-differentiated human THP1 cells assessed as inhibition of LPS-induced IL-6 production after 24 hrs by ELISA; assay type: functional, cell-based; details: THP-1, 24 h
HCT-116 = experiment: Antiproliferative activity against human HCT116 cells after 48 hrs by propidium iodide staining based fluorometry; assay type: functional, cell-based; details: HCT-116, 48 h
A-549 (Homo sapiens) = experiment: Antiproliferative activity against human A-549 cells at 10 uM relative to control

SMILES: CCOc1cc(C2C(C#N)=C(N)Oc3c2c(=O)n(C)c2ccccc32)ccc1O (stereo not given)
inhibition at 10 µM (THP-1 [1]): 0%
inhibition at 10 µM (THP-1 [2]): 0%
Activity (ACHN (Homo sapiens) [3]): 6%
Activity [4]: 12%
Activity (MIA PaCa-2): 68%
inhibition at 1 µM (THP-1 [5]): 0%
Activity [6]: 88%
Activity (THP-1 (Homo sapiens) [7]): 0%
inhibition at 1 µM (THP-1 [8]): 0%
Activity [9]: 27%

SMILES: COc1cccc(C2C(C#N)=C(N)Oc3c2c(=O)n(C)c2ccccc32)c1 (stereo not given)
Activity (ACHN (Homo sapiens) [10]): 73%
inhibition at 10 µM (THP-1 [1]): 70%
inhibition at 10 µM (THP-1 [2]): 0%
Activity (ACHN (Homo sapiens) [3]): 67%
Activity [4]: 66%
Activity (MIA PaCa-2): 75%
inhibition at 1 µM (THP-1 [5]): 0%
Activity [6]: 75%
Activity (THP-1 (Homo sapiens) [7]): 0%
inhibition at 1 µM (THP-1 [8]): 0%
Activity [9]: 76%

IC50 (PANC-1): 1.9 µM
IC50 (ACHN): 1.8 µM
IC50 (THP-1 [13]): 10 µM
IC50 (NCI-H460): 1.2 µM
IC50 (Calu-1): 1.1 µM
IC50 (THP-1 [14]): 4 µM
IC50 (HCT-116): 0.6 µM
SMILES: Cn1c(=O)c2c(c3ccccc31)OC(N)=C(C#N)C2c1ccc(O)cc1 (stereo not given)
inhibition at 10 µM (THP-1 [1]): 13%
inhibition at 10 µM (THP-1 [2]): 0%
Activity (ACHN (Homo sapiens) [3]): 55%
Activity [4]: 23%
Activity (THP-1 (Homo sapiens) [11]): 0%
Activity (MIA PaCa-2): 83%
IC50 (THP-1 [12]): 30 µM
inhibition (PBMC): inactive
inhibition at 1 µM (THP-1 [5]): 0%
Activity [6]: 77%
Activity (THP-1 (Homo sapiens) [7]): 0%
inhibition at 1 µM (THP-1 [8]): 0%
Activity [9]: 55%

SMILES: COc1ccc(C2C(C#N)=C(N)Oc3c2c(=O)n(C)c2ccccc32)cc1OC (stereo not given)
inhibition at 10 µM (THP-1 [1]): 23%
inhibition at 10 µM (THP-1 [2]): 0%
Activity (ACHN (Homo sapiens) [3]): 38%
Activity [4]: 20%
Activity (THP-1 (Homo sapiens) [11]): 43%
Activity (MIA PaCa-2): 50%
inhibition at 1 µM (THP-1 [5]): 0%
Activity [6]: 24%
Activity (THP-1 (Homo sapiens) [7]): 0%
inhibition at 1 µM (THP-1 [8]): 0%
Activity [9]: 40%

IC50 (PANC-1): 4.7 µM
IC50 (ACHN): 3.4 µM
IC50 (THP-1 [13]): 0.2 µM
IC50 (NCI-H460): 1.4 µM
IC50 (Calu-1): 1.8 µM
IC50 (THP-1 [14]): 0.2 µM
IC50 (HCT-116): 5.1 µM
SMILES: Cn1c(=O)c2c(c3ccccc31)OC(N)=C(C#N)C2c1cccc(Oc2ccccc2)c1 (stereo not given)
inhibition at 10 µM (THP-1 [1]): 70%
inhibition at 10 µM (THP-1 [2]): 0%
Activity (ACHN (Homo sapiens) [3]): 69%
Activity [4]: 47%
Activity (THP-1 (Homo sapiens) [11]): 52%
Activity (A-549 (Homo sapiens)): 67%
Activity (MIA PaCa-2): 72%
IC50 (THP-1 [12]): 11 µM
IC50 (PBMC): 0.2 µM
inhibition (PBMC): Dose-dependent effect
inhibition at 1 µM (THP-1 [5]): 18%
Activity [6]: 51%
Activity (THP-1 (Homo sapiens) [7]): 34%
inhibition at 1 µM (THP-1 [8]): 0%
Activity [9]: 66%

SMILES: Cn1c(=O)c2c(c3ccccc31)OC(N)=C(C#N)C2c1ccc(F)cc1 (stereo not given)
Activity (ACHN (Homo sapiens) [10]): 50%
inhibition at 10 µM (THP-1 [1]): 66%
inhibition at 10 µM (THP-1 [2]): 0%
Activity (ACHN (Homo sapiens) [3]): 27%
Activity [4]: 0%
Activity (THP-1 (Homo sapiens) [11]): 66%
Activity (A-549 (Homo sapiens)): 22%
Activity (MIA PaCa-2): 45%
inhibition at 1 µM (THP-1 [5]): 0%
Activity (THP-1 (Homo sapiens) [7]): 0%
inhibition at 1 µM (THP-1 [8]): 0%
Activity [9]: 16%

IC50 (PANC-1): > 20 µM
IC50 (ACHN): > 20 µM
IC50 (THP-1 [13]): 11 µM
IC50 (NCI-H460): > 20 µM
IC50 (Calu-1): > 20 µM
IC50 (THP-1 [14]): 1.4 µM
IC50 (HCT-116): > 20 µM
SMILES: Cn1c(=O)c2c(c3ccccc31)OC(N)=C(C#N)C2c1c[nH]c2ccccc12 (stereo not given)
inhibition at 10 µM (THP-1 [1]): 8%
inhibition at 10 µM (THP-1 [2]): 0%
Activity (ACHN (Homo sapiens) [3]): 27%
Activity [4]: 16%
Activity (MIA PaCa-2): 77%
IC50 (THP-1 [12]): 6.8 µM
inhibition (PBMC): inactive
inhibition at 1 µM (THP-1 [5]): 0%
Activity [6]: 67%
Activity (THP-1 (Homo sapiens) [7]): 0%
inhibition at 1 µM (THP-1 [8]): 0%
Activity [9]: 18%

SMILES: Cn1c(=O)c2c(c3ccccc31)OC(N)=C(C#N)C2c1ccccc1Cl (stereo not given)
inhibition at 10 µM (THP-1 [1]): 0%
inhibition at 10 µM (THP-1 [2]): 0%
Activity (ACHN (Homo sapiens) [3]): 48%
Activity [4]: 0%
Activity (THP-1 (Homo sapiens) [11]): 0%
Activity (MIA PaCa-2): 69%
inhibition at 1 µM (THP-1 [5]): 0%
Activity (THP-1 (Homo sapiens) [7]): 12%
inhibition at 1 µM (THP-1 [8]): 0%
Activity [9]: 26%
